Counter-ions that a name gives are not always drawn.
Assays:
[1] = in vitro; details: African green monkey
[2] = in vitro; details: human, CC50 HLT
[3] = tested on: HLT cells; details: read-out: CC50 HLT; absence of virus
[4] = tested on: VeroE6 cells; details: read-out: CC50 Vero E6; absence of virus

Compound | CC50 ([1]; CC50 Vero E6, absence of virus) | CC50 ([2]; absence of virus) | further results
Oc1ccc(CC2NCCc3cc(O)c(O)cc32)cc1 (centres unmarked) [Higenamine, Higenamine hydrochloride] | > 100 µM | > 100 µM | 
O=c1c(O)c(-c2ccc(O)c(O)c2)oc2cc(O)cc(O)c12 [Quercetin] | > 100 µM | > 100 µM | 
Cc1ccnc(NS(=O)(=O)c2ccc(N)cc2)n1 [Sulfamerazine] | > 100 µM | > 100 µM | 
CC1(C)[C@@H](O[C@H]2O[C@H](C(=O)O)[C@@H](O)[C@H](O)[C@H]2O[C@@H]2O[C@H](C(=O)O)[C@@H](O)[C@H](O)[C@H]2O)CC[C@]2(C)[C@H]3C(=O)C=C4[C@@H]5C[C@@](C)(C(=O)O)CC[C@]5(C)CC[C@@]4(C)[C@]3(C)CC[C@@H]12 [Glycyrrhizin] | > 100 µM | > 100 µM | 
CCCCCCCCCC(=O)OCC(O)CO (centres unmarked) [Monocaprin] |  |  | CC50 [3]: > 100 µM; CC50 [4]: > 100 µM
CN(C)C(=N)N=C(N)N [Metformin] | > 100 µM | > 100 µM | 
Cc1cc(O)c2c(=O)c3c(O)cc(O)c4c5c(O)cc(O)c6c(=O)c7c(O)cc(C)c8c1c2c(c34)c(c78)c65 [Hypericin] | 4.8 µM | 0.14 µM | 
CCCCCCCCCCCC(=O)O [Lauric acid] |  |  | CC50 [3]: > 100 µM; CC50 [4]: > 100 µM
CC(C)[C@H](N)C(=O)OCCOCn1cnc2c(=O)[nH]c(N)nc21 [Valaciclovir] | > 100 µM | > 100 µM | 
C[C@]1(Cn2ccnn2)[C@H](C(=O)O)N2C(=O)C[C@H]2S1(=O)=O [Tazobactam] | > 100 µM | > 100 µM | 
C[C@H](O)[C@H](O)[C@H]1CNc2nc(N)[nH]c(=O)c2N1 [Tetrahydrobiopterin, Tetrahydrobiopterin dihydrochloride] | > 100 µM | > 100 µM | 
CCCCCCCCCCCC(=O)OCC(O)CO (centres unmarked) [Monolaurin] |  |  | CC50 [3]: > 100 µM; CC50 [4]: > 100 µM
O=c1cc(-c2ccc(O)c(O)c2)oc2cc(O)cc(O)c12 [Luteolin] | > 100 µM | > 100 µM | 
CCCCCCCCCCCCOS(=O)(=O)[O-].[Na+] [SLS, Sodium lauryl sulfate] |  |  | CC50 [3]: ~83.2 µM; CC50 [4]: 87 µM
CC1(C)Cc2c(-c3ccccc3)c(-c3ccc(Cl)cc3)c(CC(=O)O)n2C1 [Licofelone] | > 100 µM | ~53.6 µM | 
CC1=C(CC(=O)O)c2cc(F)ccc2/C1=C\c1ccc([S+](C)[O-])cc1 (centres unmarked) [Sulindac] | > 100 µM | > 100 µM | 
N#C[C@@H]1CCCN1C(=O)CNC12CC3CC(CC(O)(C3)C1)C2 [Vidagliptin, Vildagliptin] | > 100 µM | > 100 µM | 
Cc1cccn2c(=O)c(-c3nnn[nH]3)cnc12 [Pemirolast, Pemirolast potassium] | > 100 µM | > 100 µM | 
NC(=O)[C@@H]1CCCN1C(=O)[C@H](Cc1c[nH]cn1)NC(=O)[C@@H]1CCC(=O)N1 [Protilerin] |  |  | CC50 [3]: > 100 µM; CC50 [4]: > 100 µM
[H]/N=C(/N)N/C(=N/[H])NCCc1ccccc1 [Phenformin] | > 100 µM | > 100 µM | 
N[C@@H](CC(=O)N1CCn2c(nnc2C(F)(F)F)C1)Cc1cc(F)c(F)cc1F [Sitagliptin] | > 100 µM | > 100 µM | 
O=C1Nc2ccccc2/C1=C1/Nc2ccccc2C1=O [Indirubin] |  |  | CC50 ([1]; CC50 Vero E6): > 100 µM; CC50 [2]: > 100 µM
O=C1CN(/N=C/c2ccc([N+](=O)[O-])o2)C(=O)N1 [Nitrofurantoin] |  |  | CC50 ([1]; CC50 Vero E6): > 100 µM; CC50 [2]: > 100 µM
Cc1ccc(-c2cc(C(F)(F)F)nn2-c2ccc(S(N)(=O)=O)cc2)cc1 [Celecoxib] | 13 µM | ~100 µM | 
O=C1C[C@@H](c2ccc(O)c(O)c2)Oc2cc(O)cc(O)c21 [Eriodictyol] | > 100 µM | > 100 µM | 

— PMC8791477, “Evaluation of SARS-CoV-2 entry, inflammation and new therapeutics in human lung tissue cells” (PLoS Pathogens, 2022)
